# Test results as given in patent publication US9617256B2 (priority 2007, dated 2017).
# Read-outs that look alike come from different tables or passages of the source.
# Legend:
# AECO001 (ATCC25922) = experiment: MIC broth microdilution, AECO001; format: cell-based, E. coli; conditions: for MIC: Escherichia coli
# Experimental: (§1) Bacterial isolates were cultivated from −70° C. frozen stocks by overnight passages at 35° C. in ambient air on Mueller-Hinton agar (Beckton Dickinson, Franklin Lakes, N.J.). Clinical isolates tested were obtained from various geographically diverse hospitals in the US and abroad (Focus Diagnostics, Herndon, Va. and JMI, North Liberty, Iowa). Quality control strains were from the American Type Culture Collection (ATCC; Rockville, Md.). Additional primary panel strains were generated using standard molecular biology techniques.
# (§2) Minimum Inhibitory Concentrations (MICs) were determined by the broth microdilution method in accordance with the Clinical and Laboratory Standards Institute (CLSI) guidelines. In brief, organism suspensions were adjusted to a 0.5 McFarland standard to yield a final inoculum between 3×10^5 and 7×10^5 colony-forming units (CFU)/mL. Drug dilutions and inocula were made in sterile, cation adjusted Mueller-Hinton Broth (Beckton Dickinson). An inoculum volume of 100 μL was added to wells containing 100 μL of broth with 2-fold serial dilutions of drug. All inoculated microdilution trays were incubated in ambient air at 35° C. for 18-24 hours. […] Performance of the assay was monitored by the use of laboratory quality-control strains and levofloxacin, a compound with a defined MIC spectrum, in accordance with CLSI guidelines.
# (§3) *AECO001 is ATCC25922, AECO063 is ATCC25922 bearing an acrAB mutation, APAE001 is ATCC27853, APAE006 is a strain of P. aeruginosa in which all efflux pumps are inactivated, APAE006+PMBN indicates MICs with the indicated strain in the presence of 8 micrograms per milliliter of polymyxin B nonapeptide, AABA1060 is a clinical isolate of Acinetobacter baumannii, ASAU001 is a laboratory strain of S. aureus (ATCC29213).
# [1] = system: APAE006 (strain of P. aeruginosa in which all efflux pumps are inactivated); experiment: microbe, parasite or virus in culture; format: cell-based; conditions: Pseudomonas aeruginosa, read-out: MIC APAE006, APAE006, all efflux pumps inactivated
# Experimental: as §1, §2, §3
# [2] = system: AECO063 (ATCC25922 bearing an acrAB mutation); experiment: microbe, parasite or virus in culture; format: cell-based, E. coli; conditions: for MIC: Escherichia coli, ATCC25922, read-out: MIC AECO063
# Experimental: as §1, §2, §3
# [3] = system: AABA1060 (clinical isolate of Acinetobacter baumannii); experiment: MIC broth microdilution, AABA1060; format: cell-based; conditions: for MIC: Acinetobacter baumannii, read-out: MIC AABA1060
# Experimental: as §1, §2, §3
# APAE001 (ATCC27853) = experiment: MIC broth microdilution, APAE001; format: cell-based, P. aeruginosa; conditions: Pseudomonas aeruginosa, ATCC27853, read-out: MIC APAE001, APAE001 (ATCC27853)
# Experimental: as §1, §2, §3
# [4] = system: ASAU001 (laboratory strain of S. aureus, ATCC29213); experiment: MIC broth microdilution, ASAU001; format: cell-based; conditions: for MIC: Staphylococcus aureus, ATCC29213, read-out: MIC ASAU001
# Experimental: as §1, §2, §3
# [5] = system: APAE006 in the presence of 8 micrograms per milliliter of polymyxin B nonapeptide; format: cell-based, P. aeruginosa; conditions: APAE006 with 8 micrograms per milliliter polymyxin B nonapeptide
# Experimental: as §1, §2, §3
# [6] = ATCC25922, read-out: MIC AECO001
# [7] = ATCC25922, read-out: MIC AECO001 HSA AGP
SMILES,MIC (AECO001 (ATCC25922); [6]),MIC (AECO001 (ATCC25922); [7]),MIC [1],MIC [2],MIC [3],MIC (APAE001 (ATCC27853)),MIC [4],MIC APAE006 + PMBN [5],MIC AECO001 (AECO001 (ATCC25922); AECO001 (ATCC25922)),MIC AECO063 ([2]; AECO063 (ATCC25922 acrAB mutation)),MIC AABA1060 ([3]; AABA1060 clinical isolate),MIC ASAU001 ([4]; ASAU001 (ATCC29213))
CC(C)C#C/C=C/c1ccc(C(=O)N[C@H](C(=O)NO)C(C)(C)N)cc1 [Example 114-19],< 2 µg/mL,2 to 16 µg/mL,< 2 µg/mL,< 2 µg/mL,< 2 µg/mL,< 2 µg/mL,2 to 16 µg/mL,A (MIC's of 2.0 μg/mL or less = A),–,–,–,–
C[C@@H](N)[C@H](NC(=O)c1ccc(/C=C/C#CC2CC2)cc1)C(=O)NO [Example 114-15],2 to 16 µg/mL,16 to 64 µg/mL,< 2 µg/mL,< 2 µg/mL,2 to 16 µg/mL,< 2 µg/mL,16 to 64 µg/mL,A (MIC's of 2.0 μg/mL or less = A),–,–,–,–
C[C@@H](N)[C@H](NC(=O)c1ccc(C#C/C=C/C2CC2)cc1)C(=O)NO [Example 107-2],< 2 µg/mL,2 to 16 µg/mL,< 2 µg/mL,< 2 µg/mL,< 2 µg/mL,< 2 µg/mL,2 to 16 µg/mL,A (MIC's of 2.0 μg/mL or less = A),–,–,–,–
CC(C)(O)[C@H](NC(=O)c1ccc(C#C/C=C/c2cccnc2)cc1)C(=O)NO [Example 106-5],< 2 µg/mL,2 to 16 µg/mL,< 2 µg/mL,< 2 µg/mL,2 to 16 µg/mL,2 to 16 µg/mL,16 to 64 µg/mL,A (MIC's of 2.0 μg/mL or less = A),–,–,–,–
"O=C(CNC1CC1)NC[C@H](NC(=O)c1ccc(C#Cc2ccccc2)cc1)C(=O)NO [Example 132-1, N—[(S)-2-(2-Cyclopropylamino-acetylamino)-1-hydroxycarbamoyl-ethyl]-4-phenylethynyl-benzamide]",< 2 µg/mL,2 to 16 µg/mL,< 2 µg/mL,< 2 µg/mL,2 to 16 µg/mL,2 to 16 µg/mL,16 to 64 µg/mL,A (MIC's of 2.0 μg/mL or less = A),–,–,–,–
CCOCc1ccc(C#CC#Cc2ccc(C(=O)N[C@H](C(=O)NO)C(C)(C)O)cc2)cc1 [Example 82-21],< 2 µg/mL,2 to 16 µg/mL,< 2 µg/mL,< 2 µg/mL,< 2 µg/mL,2 to 16 µg/mL,16 to 64 µg/mL,A (MIC's of 2.0 μg/mL or less = A),–,–,–,–
C[C@@H](O)[C@H](NC(=O)c1ccc(C#CC#Cc2ccc(C(F)(F)F)cc2)cc1)C(=O)NO [Example 82-22],–,16 to 64 µg/mL,16 to 64 µg/mL,–,–,16 to 64 µg/mL,–,A (MIC's of 2.0 μg/mL or less = A),A (MIC's of 2.0 μg/mL or less = A),A (MIC's of 2.0 μg/mL or less = A),C (MIC's of greater than 16.0 μg/mL to 64.0 μg/mL = C),C (MIC's of greater than 16.0 μg/mL to 64.0 μg/mL = C)
CC(C)(O)[C@H](NC(=O)c1ccc(C#CC#Cc2ccc(N)cc2)cc1)C(=O)NO [Example 82-17],< 2 µg/mL,< 2 µg/mL,< 2 µg/mL,< 2 µg/mL,< 2 µg/mL,< 2 µg/mL,2 to 16 µg/mL,A (MIC's of 2.0 μg/mL or less = A),–,–,–,–
CC(C)(N)[C@H](NC(=O)c1ccc(/C=C/C#CC2CC2)cc1)C(=O)NO [Example 114-18],< 2 µg/mL,2 to 16 µg/mL,< 2 µg/mL,< 2 µg/mL,< 2 µg/mL,< 2 µg/mL,16 to 64 µg/mL,A (MIC's of 2.0 μg/mL or less = A),–,–,–,–
"CC(C)(N)C(NC(=O)c1ccc(C#CC#Cc2ccc(CNC3CC3)cc2)cc1)C(=O)NO (centres unmarked) [Example 87-1, N-(2-Amino-1-hydroxycarbamoyl-2-methyl-propyl)-4-[4-(4-cyclopropylaminomethyl-phenyl)-buta-1,3-diynyl]-benzamide]",< 2 µg/mL,2 to 16 µg/mL,< 2 µg/mL,< 2 µg/mL,< 2 µg/mL,< 2 µg/mL,16 to 64 µg/mL,A (MIC's of 2.0 μg/mL or less = A),–,–,–,–
